Consider 17 compounds from patent US10550108B2, “Poly(ADP-ribose) polymerase 1 inhibitors structurally unrelated to NAD” (Institute for Cancer Research, priority 2014, dated 2020).

“Also recorded” adds a separate entry of the source.

The first series concerns breast cancer-derived cells BT474. The series is described as follows: Cell survival assay (alamarBlue), cancer-derived cells. Type of series: cell-based, human. The settings on record: 72 hr. The protocol: (§1) Normal cells and cancer-derived cells were plated at a density of 10^4 cells/well (100 μl) in a 96-well plate. On the next day, Olaparib, a NAD-mimetic, or 5F02, 4D11, 5A03, 5H03, 1C09, new non-NAD-like inhibitors, were added. Cells were grown for 72 hr. 20 μl/well of alamarBlue® reagent was added; fluorescence readings were taken.
(§2) The cytotoxic effects of treatment by classical inhibitor Olaparib and the new inhibitors was compared using breast cancer-derived cells BT474 and normal breast-derived cells HMEK.
Take `O=C(c1cc(Cc2n[nH]c(=O)c3ccccc23)ccc1F)N1CCN(C(=O)C2CC2)CC1` [Olaparib]: the “cytotoxic effect on cancer-derived cells” value is “eliminate cancer-derived cells at similar concentrations; also recorded: killed both normal and cancer cells”.

A further series concerns normal breast-derived cells HMEK. Description: Cell survival assay (alamarBlue), normal cells. Format: cell-based, human. The note with it: 72 hr. The protocol: as §1, §2
Consider `O=C(c1cc(Cc2n[nH]c(=O)c3ccccc23)ccc1F)N1CCN(C(=O)C2CC2)CC1` [Olaparib], for which the “cytotoxicity to normal cells” value is “killed both normal and cancer cells”.

The target in the next series is PARP-1 (Homo sapiens, UniProt P09874). The series is described as follows: PARP-1 activation screening assay, 384-well ELISA plate coated with histone H4. The settings on record: pilot screen of ICCB Known Bioactives library; pADPr ELISA signal (absorbance at 650 or 450 nm as indicator of PARP-1 activity).
PARP-1, sequence (P09874 whole entry): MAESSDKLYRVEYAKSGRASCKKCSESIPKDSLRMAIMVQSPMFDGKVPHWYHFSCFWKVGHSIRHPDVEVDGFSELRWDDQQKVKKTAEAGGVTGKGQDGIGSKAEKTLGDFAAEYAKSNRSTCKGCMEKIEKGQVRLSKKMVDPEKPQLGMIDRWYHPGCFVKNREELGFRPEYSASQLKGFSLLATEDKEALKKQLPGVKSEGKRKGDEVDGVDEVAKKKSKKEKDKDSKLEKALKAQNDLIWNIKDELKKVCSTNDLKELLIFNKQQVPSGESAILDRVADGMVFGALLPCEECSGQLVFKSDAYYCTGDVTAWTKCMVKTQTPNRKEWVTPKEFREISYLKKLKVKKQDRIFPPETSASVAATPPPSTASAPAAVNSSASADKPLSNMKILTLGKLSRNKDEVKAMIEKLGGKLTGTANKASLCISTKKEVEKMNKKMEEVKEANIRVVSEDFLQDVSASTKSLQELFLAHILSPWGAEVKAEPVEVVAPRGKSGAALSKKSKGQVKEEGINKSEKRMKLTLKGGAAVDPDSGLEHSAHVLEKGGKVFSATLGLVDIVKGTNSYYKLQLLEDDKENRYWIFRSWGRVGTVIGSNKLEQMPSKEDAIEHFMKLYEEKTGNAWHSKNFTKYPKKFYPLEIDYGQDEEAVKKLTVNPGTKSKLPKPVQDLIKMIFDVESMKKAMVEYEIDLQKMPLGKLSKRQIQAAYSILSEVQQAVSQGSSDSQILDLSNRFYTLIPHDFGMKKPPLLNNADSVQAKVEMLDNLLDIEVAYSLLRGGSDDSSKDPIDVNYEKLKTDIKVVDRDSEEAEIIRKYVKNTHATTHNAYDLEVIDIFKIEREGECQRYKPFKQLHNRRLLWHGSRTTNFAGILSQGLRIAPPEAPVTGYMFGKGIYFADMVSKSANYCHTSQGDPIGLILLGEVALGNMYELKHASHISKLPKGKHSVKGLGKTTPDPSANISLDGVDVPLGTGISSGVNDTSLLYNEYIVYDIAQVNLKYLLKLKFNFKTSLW
From the text: The screening platform included a PARP1 activation assay in plates coated with histone H4. PARP1 reactions were set up in each well of the plate in the presence of a single small molecule test compound or a positive or negative control compound. The product of the reaction between PARP1 and H4, poly-ADP-ribose, was then quantified, with absorbance at 650 nm or 450 nm used as an indicator of PARP1 activity (FIG. 2A).
A PARP-1 activation screening assay was designed using a 384-well ELISA plate coated with histone H4 protein-activator. PARP-1 reactions were set up in each well in presence of single a small molecule compound or a positive and a negative control. […] The product of these reactions, poly-(ADP)-ribose, was quantified. Absorbance at 650 or 450 nm was used as an indicator of PARP-1 activity (FIG. 2A). As the test library for this screening assay, the ICCB Known Bioactives library of 480 compounds was used, which includes all popular PARP-1 inhibitors.
For the compound `CNc1ccc2oc(C[C@H]3O[C@@]4(CC[C@H]3C)O[C@H]([C@H](C)C(=O)c3ccc[nH]3)[C@H](C)C[C@H]4C)nc2c1C(=O)O` [Formula A-23187, A-23187], the Value was determined as 1.22.

`[Cl-].c1ccc2c(c1)[I+]c1ccccc1-2` [Diphenyleneiodonium Cl]: the Value is recorded as 0.20.

As to `C=C1[C@@H](C)[C@H]2[C@H](Cc3ccccc3)NC(=O)[C@]23OC(=O)/C=C/[C@H](O)CCC[C@@H](C)C/C=C/[C@H]3[C@@H]1O` [Cytochalasin B], the Value stood at 2.03.

As for `CC[N+](C)(CC)CCC[n+]1c(-c2ccccc2)c2cc(N)ccc2c2ccc(N)cc21.[I-].[I-]` [Propidium iodide], the Value was determined as 0.18.

Consider `CN(C)C(=O)C(CCN1CCC(O)(c2ccc(Cl)cc2)CC1)(c1ccccc1)c1ccccc1` [Loperamide], for which the Value is 2.34.

Compound `CC1(C)Oc2ccc(C#N)cc2[C@@H](OC2=CC(=O)CC2)[C@@H]1O` [PCO-400] registered a Value of 2.01.

In turn, `CC(C)Cn1c(=O)n(C)c(=O)c2[nH]cnc21` [IBMX] displayed a Value of 0.94.

As for `O=c1c(O)c(-c2ccc(O)c(O)c2)oc2cc(O)cc(O)c12` [Quercetin], the Value was determined as 0.18.

In turn, `C=C1O[C@@](CO)(n2cnc3c(N)ncnc32)[C@H](O)[C@@H]1O` [Decoyinine] came in with a Value of 2.00.

`Br.NC1CCc2cc(O)c(O)cc2C1` (stereo not drawn) [6,7-ADTN HBr] had a Value of 0.50.

Turning to `CCOC(=O)CN1C(=O)CC(C[C@@H](O)[C@@H]2C[C@@H](C)C[C@H](C)C2=O)CC1=O` [Cycloheximide-N-ethylethanoate], the Value is recorded as 1.89.

As for `NCCNS(=O)(=O)c1cccc2cnccc12` [Formula H9], the Value turned out to be 0.05.

In the case of `COc1cccc(-c2cc(=O)c3ccccc3o2)c1N` [PD 98059], the Value is listed as 0.69.

For the compound `O=c1[nH]c2ccccc2c2ccccc12` [6(5H)-Phenanthridinone], the Value was 0.05.

For `CN(C)C[C@H](O)Cn1c2ccc(Br)cc2c2cc(Br)ccc21` (racemic) [Wiskostatin], the Value is given as 1.90.

`N#C/C(=C\c1ccc(O)c(O)c1)C(N)=S` [AG213 (Tyrphostin 47)]: the Value was 1.28.
